Assay results reported in patent US20120322060A1, “DIAGNOSIS AND MONITORING TREATMENT OF PSYCHIATRIC DISEASES WITH SPADIN AND RELATED METHODS” (CENTRE NATIONAL DE LE RECHERCHE SCIENTIFIQUE - CNRS -, priority 2011, published 2012).
No end group written: not given here.

Columns and labels:
DRN 5-HT neurons = test: Extracellular unitary recordings of DRN 5-HT neurons in mice; format: in vivo, mouse; conditions: 10^-5 M in 100 μl bolus i.p.
Procedure: As previously described, single-barreled glass micropipettes (recording electrodes) were filled with a 2 M NaCl solution saturated with Fast Green FCF, resulting in an impedance of 2-5 MΩ. Mice were anaesthetized with chloral hydrate (400 mg/kg, i.p., using a 2% solution), and placed in a stereotaxic frame equipped with the Stoelting “just for mouse” adaptor. Electrodes were positioned 0.5-1 mm posterior to the interaural line on the midline, and were then lowered into the DRN, usually attained at a depth of 2.5 mm from the brain surface. 5-HT neurons were then encountered over a maximal distance of 1 mm. They were identified using the following criteria: a slow (0.5-2.5 Hz) and regular firing rate and long-duration (0.8-1.2 ms) action potentials, with a positive-negative spike. Spikes were computed by using the Spike 2 software, so that the firing rate was calculated as the mean number of events occurring within a 10 s period. For each neuron, the discharge was monitored during 60 seconds. Each mouse received either spadin (10^−5 M in a 100 μl bolus) or its vehicle (saline). Starting 30 min after the injection, 3 to 4 successive descents were performed along the DRN, for a total of 4-8 cells recorded per animal. Recordings were performed for a maximal duration of 4 hours post-injection.

mice = test: Elevated plus-maze; format: in vivo, mouse; conditions: spadin i.p. 10^-5 M, diazepam i.p. 0.5 mg/kg
Excerpt: Elevated plus-maze. The apparatus consisted of two open and two enclosed arms of the same size (45×5 cm) with walls 15 cm high. The arms, constructed of black acrylic, radiate from a common central platform (5×5 cm) to form a plus sign. Open arms were arranged opposite to one another, as were closed arms. The maze was elevated to a height of 45 cm above floor level. Each mouse was placed in the central platform facing one of the open arms. The number of entries into the open and closed arms and the time spent on the open and closed arms were recorded during a 5 min test period. Time spent in the unprotected open arms as well as the number of entries in open arms in relation to the total of arm entries are used as experimental indices of anxiety.

APLPRWSGPIGVSWGLR [spadin]
increase of DRN 5-HT neuron firing rate versus vehicle (DRN 5-HT neurons): 146%
mean firing rate of DRN 5-HT neurons (DRN 5-HT neurons): 3.1±0.7 Hz
time spent in the open arms (mice): had no effect
